Assay results reported in paper PMC2898634 (Chemical Communications (Cambridge, England), 2009).

Legend:
[1] = target: IP3R1 with R504 mutated to glutamine (Rattus norvegicus, UniProt P29994, R504Q); assay: Ca2+ release in cell line expressing only IP3R1 with R504 mutated to glutamine; type: cell-based
IP3R = conditions: cited from earlier work

IP3R1 with R504 mutated to glutamine, sequence (P29994 whole entry R504Q): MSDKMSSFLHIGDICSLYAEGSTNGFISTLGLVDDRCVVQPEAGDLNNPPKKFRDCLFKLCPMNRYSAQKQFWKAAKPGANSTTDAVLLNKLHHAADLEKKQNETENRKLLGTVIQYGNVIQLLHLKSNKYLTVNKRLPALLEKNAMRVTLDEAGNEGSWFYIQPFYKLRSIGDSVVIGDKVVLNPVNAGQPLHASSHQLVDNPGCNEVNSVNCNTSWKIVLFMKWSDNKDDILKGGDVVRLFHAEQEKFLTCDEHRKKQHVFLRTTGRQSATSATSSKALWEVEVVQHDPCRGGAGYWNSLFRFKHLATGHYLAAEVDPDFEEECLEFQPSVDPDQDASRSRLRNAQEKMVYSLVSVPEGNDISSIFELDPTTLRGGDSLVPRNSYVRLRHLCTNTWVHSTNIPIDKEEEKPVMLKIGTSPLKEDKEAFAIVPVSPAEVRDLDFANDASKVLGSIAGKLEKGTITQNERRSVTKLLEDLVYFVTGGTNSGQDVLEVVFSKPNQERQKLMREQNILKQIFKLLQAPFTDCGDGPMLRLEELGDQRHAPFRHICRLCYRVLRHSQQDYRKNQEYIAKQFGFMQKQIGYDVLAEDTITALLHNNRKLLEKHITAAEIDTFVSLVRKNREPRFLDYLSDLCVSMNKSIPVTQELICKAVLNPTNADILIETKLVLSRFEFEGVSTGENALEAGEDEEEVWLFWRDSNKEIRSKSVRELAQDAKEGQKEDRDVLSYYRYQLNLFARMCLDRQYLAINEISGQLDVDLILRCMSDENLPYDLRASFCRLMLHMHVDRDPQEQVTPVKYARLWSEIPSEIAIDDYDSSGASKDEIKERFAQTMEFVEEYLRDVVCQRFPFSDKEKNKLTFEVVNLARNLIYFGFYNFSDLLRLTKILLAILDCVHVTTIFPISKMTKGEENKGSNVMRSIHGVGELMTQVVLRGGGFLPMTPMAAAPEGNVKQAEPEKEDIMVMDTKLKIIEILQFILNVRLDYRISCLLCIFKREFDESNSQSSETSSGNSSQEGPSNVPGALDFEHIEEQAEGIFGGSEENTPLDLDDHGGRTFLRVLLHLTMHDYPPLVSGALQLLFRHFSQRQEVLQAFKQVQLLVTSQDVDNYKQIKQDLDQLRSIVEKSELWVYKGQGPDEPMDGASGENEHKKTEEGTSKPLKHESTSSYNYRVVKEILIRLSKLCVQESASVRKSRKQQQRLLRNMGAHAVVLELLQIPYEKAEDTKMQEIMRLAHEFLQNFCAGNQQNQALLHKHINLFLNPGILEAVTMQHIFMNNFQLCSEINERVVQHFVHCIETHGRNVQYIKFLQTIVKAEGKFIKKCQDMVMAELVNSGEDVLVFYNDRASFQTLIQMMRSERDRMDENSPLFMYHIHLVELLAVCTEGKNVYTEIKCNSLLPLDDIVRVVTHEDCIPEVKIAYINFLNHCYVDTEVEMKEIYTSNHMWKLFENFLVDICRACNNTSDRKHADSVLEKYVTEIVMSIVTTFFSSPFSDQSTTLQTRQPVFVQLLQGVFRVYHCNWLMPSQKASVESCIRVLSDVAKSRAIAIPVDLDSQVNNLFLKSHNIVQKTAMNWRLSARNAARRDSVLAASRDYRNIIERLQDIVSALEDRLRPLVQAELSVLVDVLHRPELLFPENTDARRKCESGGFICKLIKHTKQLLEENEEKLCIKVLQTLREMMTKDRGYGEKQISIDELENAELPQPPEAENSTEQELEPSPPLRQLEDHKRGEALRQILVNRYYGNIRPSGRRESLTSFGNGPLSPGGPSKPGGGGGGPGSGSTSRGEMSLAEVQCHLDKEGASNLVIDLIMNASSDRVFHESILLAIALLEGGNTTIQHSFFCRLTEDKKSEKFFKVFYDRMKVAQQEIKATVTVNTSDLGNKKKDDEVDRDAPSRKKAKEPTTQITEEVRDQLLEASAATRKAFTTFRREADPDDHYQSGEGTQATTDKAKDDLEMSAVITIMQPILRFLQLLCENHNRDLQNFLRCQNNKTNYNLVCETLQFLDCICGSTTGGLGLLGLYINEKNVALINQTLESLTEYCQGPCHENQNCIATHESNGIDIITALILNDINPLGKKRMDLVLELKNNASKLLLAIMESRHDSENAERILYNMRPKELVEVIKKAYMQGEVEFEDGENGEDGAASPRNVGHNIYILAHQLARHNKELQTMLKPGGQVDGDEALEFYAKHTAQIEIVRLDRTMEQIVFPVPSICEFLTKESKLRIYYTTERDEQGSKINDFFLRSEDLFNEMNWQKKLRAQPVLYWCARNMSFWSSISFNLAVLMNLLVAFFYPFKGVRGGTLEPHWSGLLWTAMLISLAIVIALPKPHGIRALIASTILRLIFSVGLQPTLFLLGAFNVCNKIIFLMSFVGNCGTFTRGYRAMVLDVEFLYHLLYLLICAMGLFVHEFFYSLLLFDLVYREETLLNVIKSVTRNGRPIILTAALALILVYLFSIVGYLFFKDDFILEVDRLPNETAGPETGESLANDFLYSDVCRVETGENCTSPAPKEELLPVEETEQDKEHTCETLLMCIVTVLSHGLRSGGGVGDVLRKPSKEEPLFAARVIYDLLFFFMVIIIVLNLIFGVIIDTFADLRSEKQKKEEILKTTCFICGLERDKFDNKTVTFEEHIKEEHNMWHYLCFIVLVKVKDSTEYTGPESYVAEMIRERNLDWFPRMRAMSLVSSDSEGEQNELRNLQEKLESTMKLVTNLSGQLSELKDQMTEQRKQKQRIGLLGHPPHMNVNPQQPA

Compound | potency relative to IP3 at the mutated receptor [1] | change of EC50 at mutant IP3R relative to IP3R1 ([1]; printed as EC50 reduced) [fold] | potency relative to IP3 (IP3R) | activity at IP3R (result in words) (IP3R)
Nc1ncnc2c1ncn2[C@@H]1O[C@H](CO)[C@@H](O[C@H]2O[C@H](CO)[C@@H](OP(=O)(O)O)[C@H](OP(=O)(O)O)[C@H]2O)[C@H]1OP(=O)(O)O [AdA, adenophostin A] | only equipotent with IP3 | 434 | at least ten times more potent than IP3 | –
O=P(O)(O)O[C@@H]1[C@@H](O)[C@H](OP(=O)(O)O)[C@H](O)[C@H](O)[C@H]1O [Ins(1,5)P2] | – | – | – | inactive
